The values below come from ChEMBL document CHEMBL1201862, “PubChem BioAssay data set” (2004).

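Growth conditions: 96-well plates. Treatment: test compound, 48 hours, 5 concentrations. Analysis: linear interpolation between bracketing concentrations; unreached endpoints set to highest concentration. Here, GI50 denotes the concentration required for 50% inhibition of growth.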 Active and inactive are the calls of the source. Rule as the data show it: active = GI50 up to about 1.1 µM and inactive = higher. A value given as a limit tells only on which side of the number the result lay.

Some test systems named below: CCRF-CEM; COLO 205; EKVX; HCT-116; HL-60; HOP-62; HT-29; KM12; LOX IMVI; NCI-H460; NCI-H522; RPMI-8226; RXF 393; SF-268; SK-MEL-5; SN12C; SR; UACC-257; UO-31; A498.
Common to all, as to experiment: DTP human tumour cell line panel, 48 h

By GI50 is commonly meant the concentration at which growth is held to half of that of the control. As to `C/C(=N\O)c1ccc2ccc3ccccc3c2c1`, the GI50 with CCRF-CEM is 51.3 µM (inactive); with COLO 205, 37.3 µM (inactive); in the assay on EKVX, 15.3 µM (inactive); with HCT-116 it was 90.6 µM (inactive); in the assay with HL-60 it was 22.2 µM (inactive); in the assay on HOP-62, > 100 µM (inactive). Further, the GI50 in the assay on HT-29 was 28.3 µM (inactive); in the assay on KM12, 21.5 µM (inactive); with LOX IMVI, 24.5 µM (inactive); in the assay with NCI-H460, 42.6 µM (inactive); with NCI-H522, 29.9 µM (inactive); in the assay on RPMI-8226 it was 34.6 µM (inactive). Moreover, the GI50 in the assay on RXF 393 is 34.3 µM (inactive); with SF-268, 44.9 µM (inactive); in the assay on SK-MEL-5, 19.2 µM (inactive); with SN12C it was 30.8 µM (inactive); with SR it was 21.8 µM (inactive); in the assay with UACC-257 it was 22.9 µM (inactive). Also, the GI50 in the assay with UO-31 was 35.1 µM (inactive).

In the case of `CCNC(=S)NNC(=O)c1csc(NC(=S)NC2CCCCC2)n1`, the GI50 is 23 µM (inactive) with A498; 4.55 µM (inactive) in the assay with CCRF-CEM; 8.53 µM (inactive) with COLO 205; > 100 µM (inactive) with EKVX; 5.26 µM (inactive) in the assay with HCT-116; 10.6 µM (inactive) in the assay with HOP-62. Besides, the GI50 with HT-29 is > 100 µM (inactive); with KM12 it was 11.1 µM (inactive); in the assay with LOX IMVI, 5.83 µM (inactive); in the assay with NCI-H460, 6.62 µM (inactive); in the assay on RPMI-8226 it was 11.7 µM (inactive); in the assay on SF-268 it was 10.8 µM (inactive). Besides, the GI50 in the assay on SK-MEL-5 is 2.79 µM (inactive); in the assay with SN12C, 3.19 µM (inactive); with SR, 3.5 µM (inactive); with UACC-257 it was 4.79 µM (inactive); in the assay with UO-31, 8.45 µM (inactive).

For `O=C1/C=C(/c2ccc(O)cc2)[C@@H](O)Cc2ccc(O)cc2O1`, the GI50 in the assay with A498 is 2.25 µM (inactive); in the assay on COLO 205 it was > 100 µM (inactive); in the assay with EKVX it was > 100 µM (inactive); in the assay with HCT-116, > 100 µM (inactive); with HOP-62, 61.4 µM (inactive); in the assay on HT-29, > 100 µM (inactive). The GI50 in the assay on KM12 was 88.1 µM (inactive); in the assay on LOX IMVI it was 92.3 µM (inactive); in the assay on NCI-H460, 62.4 µM (inactive); with NCI-H522 it was 54.8 µM (inactive); in the assay on SF-268, 45.1 µM (inactive); in the assay with SK-MEL-5, > 100 µM (inactive). The GI50 with SN12C is 85.9 µM (inactive); in the assay on SR, 56.1 µM (inactive); in the assay on UACC-257, > 100 µM (inactive); with UO-31, 85.3 µM (inactive).

As for `O=C1CN(C(=O)c2ccccc2)Cc2[nH]c3ccccc3c21`, the GI50 in the assay with CCRF-CEM, in the assay on COLO 205, in the assay on EKVX, in the assay with HCT-116, with HL-60 and with HOP-62 was > 100 µM (inactive) in each case. Besides, the GI50 with HT-29, with KM12, in the assay on LOX IMVI, in the assay on NCI-H460, with NCI-H522 and in the assay on RPMI-8226 was > 100 µM (inactive) each time. Moreover, the GI50 with RXF 393, with SK-MEL-5, with SN12C, in the assay with SR, in the assay with UACC-257 and in the assay on UO-31 was > 100 µM (inactive) throughout.

As for `COc1cccc2c1OC(c1cccc3ccccc13)C([N+](=O)[O-])=C2` (centres undefined), the GI50 with CCRF-CEM was 0.312 µM (active); in the assay on COLO 205 it was 1.92 µM (inactive); in the assay on EKVX, 3.07 µM (inactive); in the assay with HCT-116, 1.21 µM (inactive); with HL-60 it was 0.612 µM (active); in the assay with HOP-62, 2.1 µM (inactive). The GI50 is 1.92 µM (inactive) in the assay with HT-29; 1.63 µM (inactive) in the assay with KM12; 1.04 µM (active) with LOX IMVI; 1.9 µM (inactive) with NCI-H460; 1.33 µM (inactive) with NCI-H522; 3.45 µM (inactive) with RPMI-8226. In addition, the GI50 was 1.31 µM (inactive) in the assay with RXF 393; 2.96 µM (inactive) in the assay with SF-268; 1.59 µM (inactive) in the assay with SK-MEL-5; 2 µM (inactive) in the assay on SN12C; 0.604 µM (active) with SR; 1.54 µM (inactive) in the assay with UACC-257. Moreover, the GI50 in the assay with UO-31 was 1.44 µM (inactive).

For `COc1ccc(OC)c(-c2cn3c(n2)sc2ccccc23)c1`, the GI50 with CCRF-CEM, with COLO 205, with EKVX, with HCT-116, with HL-60 and with HOP-62 was > 100 µM (inactive) throughout. For the same compound, the GI50 was 8.26 µM (inactive) in the assay with HT-29; > 100 µM (inactive) with KM12; > 100 µM (inactive) with LOX IMVI; > 100 µM (inactive) in the assay with NCI-H460; > 100 µM (inactive) with NCI-H522; > 100 µM (inactive) in the assay with RPMI-8226. The GI50 was > 100 µM (inactive) in the assay on RXF 393; > 100 µM (inactive) with SF-268; 65 µM (inactive) with SK-MEL-5; > 100 µM (inactive) in the assay on SN12C; > 100 µM (inactive) in the assay on SR; > 100 µM (inactive) with UACC-257. The GI50 in the assay with UO-31 was > 100 µM (inactive).

On to `COc1c2c(cc3occ(-c4ccc(CC=C(C)C)cc4)c(=O)c13)OC(C)(C)C=C2`, for which the GI50 is 12.8 µM (inactive) with CCRF-CEM; 43.4 µM (inactive) with COLO 205; 28.4 µM (inactive) in the assay on EKVX; 26.4 µM (inactive) in the assay on HCT-116; 10.3 µM (inactive) with HL-60; > 100 µM (inactive) with HOP-62. Besides, the GI50 in the assay on HT-29 is 26.9 µM (inactive); in the assay on KM12, 41.4 µM (inactive); with LOX IMVI, 23.6 µM (inactive); with NCI-H522, 13.9 µM (inactive); in the assay with RPMI-8226 it was 6.97 µM (inactive); in the assay with RXF 393 it was 43.4 µM (inactive). The GI50 in the assay on SF-268 is > 100 µM (inactive); in the assay on SK-MEL-5 it was 11.7 µM (inactive); in the assay on SN12C it was 84.1 µM (inactive); in the assay on SR it was 8.55 µM (inactive); in the assay with UACC-257 it was 39.4 µM (inactive); in the assay on UO-31 it was 33.1 µM (inactive).

`COC1=CC(=O)c2c(cc(COP(=O)(OCC3OC(n4cc(F)c(=O)[nH]c4=O)CC3O)N(C)CCCCCl)n2C)C1=O` (centres undefined): the GI50 in the assay on CCRF-CEM is < 0.01 µM (active); in the assay on EKVX, 3.86 µM (inactive); in the assay with HCT-116, 0.138 µM (active); in the assay with HL-60 it was 0.195 µM (active); with HOP-62, 0.0413 µM (active); in the assay on HT-29, 0.233 µM (active). For the same compound, the GI50 with KM12 was 10 µM (inactive); in the assay with LOX IMVI it was 0.0148 µM (active); with NCI-H460 it was < 0.01 µM (active); in the assay with NCI-H522 it was 0.495 µM (active); in the assay with RPMI-8226, < 0.0237 µM (active); in the assay on RXF 393, 0.0478 µM (active). Moreover, the GI50 in the assay with SF-268 was < 0.01 µM (active); with SK-MEL-5, 0.0329 µM (active); in the assay with SN12C, < 0.0248 µM (active); with SR, < 0.01 µM (active); with UACC-257 it was 18.5 µM (inactive); in the assay with UO-31 it was 0.0605 µM (active).
